Test results from patent US20070196490A1, “Method of enhancing needleless transdermal powered drug delivery” (priority 1999, published 2007).

Tests used:
[1] = female, human, in vivo
Method: (§1) In order to evaluate the bioavailability of a peptide drug (calcitonin) administered via particle injection, with and without post administration patch occlusion (relative to subcutaneous injection), the following clinical study was carried out.
(§2) For subcutaneous injections, Miacalcic® calcitonin product was obtained from a commercial source and contained approximately 25 μg (100 IU) of salmon calcitonin (sCT) per ml. For particle injections, the calcitonin composition was formed from sCT at 8% w/w, PVP excipient at 2% w/w, in mannitol. The calcitonin composition was then lyophilized, compressed and then milled to produce particles suitable for use in a particle injection device. […] The 38-53 μm sieve fraction was obtained using a standard mesh screen.
(§3) All particle injections were carried out using a PowderJect® model ND1 needleless syringe fitted with a porous silencer (obtained from PowderJect Technologies, Inc., Fremont, Calif.). […] The devices were operated as described in the '796 patent, using a 60 bar gas source, in order to deliver the sCT particles.
(§4) Occlusive patches were produced by cutting Parafilm® discs which were held in-place by an adhesive dressing. In experimental groups receiving an occlusive dressing, the patch was placed on the skin covering the site of particle administration after sCT delivery and left in-place for the duration of the study (4 hours).
(§5) The overall approach involved measuring pharmacokinetic and pharmacodynamic response parameters following the sCT dose in 24 healthy female subjects. The trial was designed as a single center, open, parallel group trial.
(§6) Blood samples were collected via an indwelling catheter prior to and at 2, 5, 10, 20, 30, 45, 60, 90, 120, 180 and 240 minutes following administration of the calcitonin dose. sCT plasma concentrations were determined by ELISA (PPD Development, VA).

clinical = conditions: female, human, in vivo
Method: as §1, §2, §3, §4, §5, §6

mean bioavailability (BA) relative to the SC injection [1]: 5.1%
Tmax (clinical; sc): 20 min
Tmax (clinical; topical or ocular, 300 ug): 5 min
Structure (SMILES): CC(C)C[C@H](NC(=O)[C@H](CCCCN)NC(=O)CNC(=O)[C@H](CC(C)C)NC(=O)[C@@H](NC(=O)[C@@H]1CSSC[C@H](N)C(=O)N[C@@H](CO)C(=O)N[C@@H](CC(N)=O)C(=O)N[C@@H](CC(C)C)C(=O)N[C@@H](CO)C(=O)N[C@@H]([C@@H](C)O)C(=O)N1)C(C)C)C(=O)N[C@@H](CO)C(=O)N[C@@H](CCC(N)=O)C(=O)N[C@@H](CCC(=O)O)C(=O)N[C@@H](CC(C)C)C(=O)N[C@@H](Cc1c[nH]cn1)C(=O)N[C@@H](CCCCN)C(=O)N[C@@H](CC(C)C)C(=O)N[C@@H](CCC(N)=O)C(=O)N[C@H](C(=O)N[C@@H](Cc1ccc(O)cc1)C(=O)N1CCC[C@H]1C(=O)N[C@@H](CCCNC(=N)N)C(=O)N[C@H](C(=O)N[C@@H](CC(N)=O)C(=O)N[C@H](C(=O)NCC(=O)N[C@@H](CO)C(=O)NCC(=O)N[C@H](C(=O)N1CCC[C@H]1C(N)=O)[C@@H](C)O)[C@@H](C)O)[C@@H](C)O)[C@@H](C)O [sCT, salmon calcitonin]
